Active and inactive are the calls of the source. The calls are words filed in the database; no cut-off is given here.
Legend:
Plasmodium falciparum = experiment: Antiplasmodial activity against chloroquine-sensitive Plasmodium falciparum; assay type: functional, organism-based
Staphylococcus aureus = experiment: Antibacterial activity against Staphylococcus aureus assessed as inhibition of biofilm formation; assay type: functional, organism-based
Leishmania major = experiment: Antileishmanial activity against Leishmania major MHOM/IL/81/FE/BNI infected in BALB/c mouse; assay type: functional
[1] = Cytotoxicity against mouse J774.1 cells after 48 hrs; assay type: cell-based; details: read-out: ED50
[2] = tested on: Trypanosoma brucei brucei; experiment: Antitrypanosomal activity against Trypanosoma brucei brucei TC221; assay type: functional; details: read-out: ED50 (the source's name)

IC50 (Plasmodium falciparum)	EC50 [2] [µM]	IC50 (Plasmodium falciparum; Plasmodium falciparum, read-out: IC50) [µM]	Compound	Activity (Staphylococcus aureus)	ED50 (Leishmania major) [µM]	CC50 at 48 h [1] [µM]	Activity (Plasmodium falciparum)
Not Active	20.3		CC[C@@H]1CC2(C[C@H](CC)N1)C(=O)N(Cc1ccccc1)C(=O)N2c1ccccc1 (some centres undefined)	inactive			
Not Active			COC(=O)C1C(=O)C(C(=O)OC)[C@H](c2ccccn2)N(CCO)[C@@H]1c1ccccn1 (some centres undefined)	inactive	>100	31.2	
		26	ON=C1CCN(CCCc2ccccc2)CC1	inactive			
	22.9		NCCCC(N)(C(=O)O)C(F)F (centres undefined) [EFLORNITHINE]				
Not Active			COC(=O)C1=C(O)C[C@@H](c2ccccn2)N(Cc2ccccc2)[C@H]1c1ccccn1	inactive	25.97	33.2	
	0.43		COC(=O)C1=C(O)C[C@H](c2ccccn2)N(Cc2ccc(OC)cc2)[C@@H]1c1ccccn1	inactive	30	29.9	
	> 100		COC(=O)C1=C(O)C[C@H](c2ccccn2)N(Cc2cccc(OC)c2)[C@@H]1c1ccccn1	inactive	>100	> 100	
Not Active			C=CCN1[C@H](c2ccccc2)C(C(=O)OC)C(=O)C(C(=O)OC)[C@@H]1c1ccccc1 (some centres undefined)	inactive		> 100	
	0.0027		N=C(N)c1ccc(OCCCCCOc2ccc(C(=N)N)cc2)cc1 [PENTAMIDINE ISETHIONATE]				
Not Active			COC(=O)C1C(=O)C(C(=O)OC)[C@H](c2ccccn2)N(CCOCCO)[C@@H]1c1ccccn1 (some centres undefined)	inactive	65.04	38.5	
Not Active	24.4		CCCC[C@@H]1CC2(C[C@H](CCCC)N1)C(=O)NC(=O)N2c1ccccc1 (some centres undefined)	inactive	>100		
	0.47		COC(=O)C1=C(O)C[C@H](c2ccccn2)N(Cc2ccc(C)cc2)[C@@H]1c1ccccn1	inactive	83.83	34.9	
Not Active			COC(=O)C1C(=O)[C@H](C(=O)OC)C(c2ccccn2)N[C@@H]1c1ccccn1 (some centres undefined)	inactive	>100	> 100	
Not Active			C=CCN1[C@H](c2ccccn2)C(C(=O)OC)C(=O)C(C(=O)OC)[C@@H]1c1ccccn1 (some centres undefined)	inactive	>100	> 100	
			COC(=O)C1C(=O)C(C(=O)OC)[C@H](c2ccccn2)N(CCCCCCCC(=O)O)[C@@H]1c1ccccn1 (some centres undefined)		50.34	33.8	inactive
	> 100		O/N=C/C1CCN(CCCc2ccccc2)CC1	inactive	>100	> 100	

Compound	IC50 (Plasmodium falciparum)	EC50 [2] [µM]	IC50 (Plasmodium falciparum; Plasmodium falciparum, read-out: IC50) [µM]	Activity (Staphylococcus aureus)	ED50 (Leishmania major) [µM]	CC50 at 48 h [1] [µM]	Activity (Plasmodium falciparum)
COC(=O)C1C(=O)C(C(=O)OC)[C@H](c2cccc([N+](=O)[O-])c2)N(Cc2ccccc2)[C@@H]1c1cccc([N+](=O)[O-])c1 (some centres undefined)	Not Active			inactive	>100	> 100	
COC(=O)C1C(=O)C(C(=O)OC)[C@H](c2cccc([N+](=O)[O-])c2)N(Cc2ccc(C)cc2)[C@@H]1c1cccc([N+](=O)[O-])c1 (some centres undefined)	Not Active			inactive	>100	49.8	
COC(=O)C1C(=O)C(C(=O)OC)[C@H](c2cccc([N+](=O)[O-])c2)N(Cc2ccc(Cl)cc2)[C@@H]1c1cccc([N+](=O)[O-])c1 (some centres undefined)	Not Active			inactive	>100	46.6	
COC(=O)C1C(=O)C(C(=O)OC)[C@H](c2cccc([N+](=O)[O-])c2)N(Cc2ccc(OC)cc2)[C@@H]1c1cccc([N+](=O)[O-])c1 (some centres undefined)	Not Active			inactive	>100	> 100	

— ChEMBL document CHEMBL1140714, “In search of novel agents for therapy of tropical diseases and human immunodeficiency virus” (J Med Chem, 2008)
